From patent US9049864B2, “Pyridazinone herbicidal compounds” (Syngenta Limited, priority 2012, dated 2015)

How the values were obtained:
Experiment in all cases: Post-emergence herbicidal glasshouse test, percentage damage to the plant
Format in all cases: in vivo
[1] = tested on: Echinochloa crus-galli (ECHCG)
Experimental: (§1) Seeds of a variety of test species are sown in standard soil in pots:—Solanum nigrum (SOLNI), Amaranthus retoflexus (AMARE), Setaria faberi (SETFA), Alopecurus myosuroides (ALOMY), Echinochloa crus-galli (ECHCG), Ipomoea hederacea (IPOHE). After 8 days cultivation (post-emergence) under controlled conditions in a glasshouse (at 24/16° C., day/night; 14 hours light; 65% humidity), the plants are sprayed with an aqueous spray solution derived from the formulation of the technical active ingredient in acetone/water (50:50) solution containing 0.5% Tween 20 (polyoxyethelyene sorbitan monolaurate, CAS RN 9005-64-5). Compounds are applied at 1000 g/ha. The test plants are then grown in a glasshouse under controlled conditions in a glasshouse (at 24/16° C., day/night; 14 hours light; 65% humidity) and watered twice daily. After 13 days, the test is evaluated for the percentage damage caused to the plant. The biological activities are shown in the following table on a five point scale (5=80-100%; 4=60-79%; 3=40-59%; 2=20-39%; 1=0-19%). A comparative experiment is conducted to compare the biological efficacy of a compound of the present invention with those of WO 2011/045271. The test is performed as outlined above using the following compounds. Three different application rates are employed (250 g/ha, 500 g/ha and 1000 g/ha).

Setaria faberi (SETFA) = tested on: Setaria faberi (SETFA)
Experimental: as §1

Solanum nigrum (SOLNI) = tested on: Solanum nigrum (SOLNI)
Experimental: as §1

[2] = tested on: Ipomoea hederacea (IPOHE)
Experimental: as §1

[3] = tested on: Alopecurus myosuroides (ALOMY)
Experimental: as §1

[4] = tested on: Amaranthus retoflexus (AMARE)
Experimental: as §1

[5] = comparative experiment, rate 250 g/ha
[6] = comparative experiment, rate 500 g/ha
[7] = comparative experiment, rate 1000 g/ha
[8] = post-emergence, 1000 g/ha, evaluated after 13 days

| Structure (SMILES) | POST Application ECHCG, percentage damage (five point scale) [1, 8] | POST Application SETFA, percentage damage (five point scale) (Setaria faberi (SETFA); [8]) | POST Application SOLNI, percentage damage (five point scale) (Solanum nigrum (SOLNI); [8]) | POST Application IPOHE, percentage damage (five point scale) [2, 8] | POST Application ALOMY, percentage damage (five point scale) [3, 8] | POST Application AMARE, percentage damage (five point scale) [4, 8] | also measured |
| --- | --- | --- | --- | --- | --- | --- | --- |
| CN1N=CC(=O)C(n2nc(Cl)c3ccccc32)C1=O (stereo not drawn) [Compound 1.001, 4-(3-chloroindazol-1-yl)-2-methyl-pyridazine-3,5-dione] | 4 (4=60-79%) | 2 (2=20-39%) | 5 (5=80-100%) | 5 (5=80-100%) | 1 (1=0-19%) | 5 (5=80-100%) | POST Application ECHCG, percentage damage (five point scale) [1, 5]: 2 (2=20-39%); POST Application ECHCG, percentage damage (five point scale) [1, 6]: 3 (3=40-59%); POST Application ECHCG, percentage damage (five point scale) [1, 7]: 3 (3=40-59%); POST Application SETFA, percentage damage (five point scale) (Setaria faberi (SETFA); [5]): 1 (1=0-19%); POST Application SETFA, percentage damage (five point scale) (Setaria faberi (SETFA); [6]): 1 (1=0-19%); POST Application SETFA, percentage damage (five point scale) (Setaria faberi (SETFA); [7]): 3 (3=40-59%); POST Application SOLNI, percentage damage (five point scale) (Solanum nigrum (SOLNI); [5]): 5 (5=80-100%); POST Application SOLNI, percentage damage (five point scale) (Solanum nigrum (SOLNI); [6]): 5 (5=80-100%); POST Application SOLNI, percentage damage (five point scale) (Solanum nigrum (SOLNI); [7]): 5 (5=80-100%); POST Application IPOHE, percentage damage (five point scale) [2, 5]: 5 (5=80-100%); POST Application IPOHE, percentage damage (five point scale) [2, 6]: 5 (5=80-100%); POST Application IPOHE, percentage damage (five point scale) [2, 7]: 5 (5=80-100%); POST Application ALOMY, percentage damage (five point scale) [3, 5]: 2 (2=20-39%); POST Application ALOMY, percentage damage (five point scale) [3, 6]: 2 (2=20-39%); POST Application ALOMY, percentage damage (five point scale) [3, 7]: 2 (2=20-39%); POST Application AMARE, percentage damage (five point scale) [4, 5]: 4 (4=60-79%); POST Application AMARE, percentage damage (five point scale) [4, 6]: 4 (4=60-79%); POST Application AMARE, percentage damage (five point scale) [4, 7]: 4 (4=60-79%) |
| CC1=NN(C)C(=O)C(n2ccc3ccccc32)C1=O (stereo not drawn) [Compound 1.002] | 1 (1=0-19%) | 1 (1=0-19%) | 5 (5=80-100%) | 4 (4=60-79%) | 1 (1=0-19%) | 4 (4=60-79%) | – |
| CC1=NN(C)C(=O)C(n2c(Cl)c(Cl)c3ccccc32)C1=O (stereo not drawn) [Compound 1.003, 4-(2,3-dichloroindol-1-yl)-2,6-dimethyl-pyridazine-3,5-dione] | 2 (2=20-39%) | 1 (1=0-19%) | 5 (5=80-100%) | 5 (5=80-100%) | 1 (1=0-19%) | 5 (5=80-100%) | – |
| CN1N=CC(=O)C(n2ccc3cc(Br)ccc32)C1=O (stereo not drawn) [Compound 1.004] | 1 (1=0-19%) | 1 (1=0-19%) | 4 (4=60-79%) | 1 (1=0-19%) | 1 (1=0-19%) | 1 (1=0-19%) | – |
| CN1N=CC(=O)C(n2ccc3c(Br)cccc32)C1=O (stereo not drawn) [Compound 1.005] | 1 (1=0-19%) | 3 (3=40-59%) | 5 (5=80-100%) | 2 (2=20-39%) | 1 (1=0-19%) | 2 (2=20-39%) | – |
| CN1N=CC(=O)C(n2ccc3ccc(Br)cc32)C1=O (stereo not drawn) [Compound 1.006] | 1 (1=0-19%) | 1 (1=0-19%) | 4 (4=60-79%) | 1 (1=0-19%) | 1 (1=0-19%) | 1 (1=0-19%) | – |
| Cc1cn(C2C(=O)C=NN(C)C2=O)c2ccccc12 (stereo not drawn) [Compound 1.007] | 1 (1=0-19%) | 1 (1=0-19%) | 5 (5=80-100%) | 1 (1=0-19%) | 1 (1=0-19%) | 2 (2=20-39%) | – |
| Cc1cccc2ccn(C3C(=O)C=NN(C)C3=O)c12 (stereo not drawn) [Compound 1.008] | 1 (1=0-19%) | 1 (1=0-19%) | 4 (4=60-79%) | 2 (2=20-39%) | 1 (1=0-19%) | 1 (1=0-19%) | – |
| CN1N=CC(=O)C(n2ncc3ccccc32)C1=O (stereo not drawn) [Compound 1.009] | 1 (1=0-19%) | 1 (1=0-19%) | 4 (4=60-79%) | 1 (1=0-19%) | 1 (1=0-19%) | 4 (4=60-79%) | – |
| CC(C)N1N=CC(=O)C(n2cc(Cl)c3ccccc32)C1=O (stereo not drawn) [Compound 1.010] | 1 (1=0-19%) | 1 (1=0-19%) | 3 (3=40-59%) | 1 (1=0-19%) | 1 (1=0-19%) | 1 (1=0-19%) | – |
| CN1N=CC(=O)C(n2cc(Cl)c3ccccc32)C1=O (stereo not drawn) [Compound 1.012, 4-(3-Chloro-indol-1-yl)-2-methyl-2H-pyridazine-3,5-dione] | 2 (2=20-39%) | 5 (5=80-100%) | 5 (5=80-100%) | 5 (5=80-100%) | 1 (1=0-19%) | 5 (5=80-100%) | – |
| CN1N=CC(=O)C(n2c(Cl)c(Cl)c3ccccc32)C1=O (stereo not drawn) [Compound 1.013] | 1 (1=0-19%) | 2 (2=20-39%) | 5 (5=80-100%) | 5 (5=80-100%) | 1 (1=0-19%) | 5 (5=80-100%) | – |
| CN1N=CC(=O)C(n2ccc3ccccc32)C1=O (stereo not drawn) [Compound 1.014] | 4 (4=60-79%) | 1 (1=0-19%) | 5 (5=80-100%) | 4 (4=60-79%) | 1 (1=0-19%) | 3 (3=40-59%) | – |
| CN1N=CC(=O)C(n2cc(Cl)c3cc(Cl)ccc32)C1=O (stereo not drawn) [Compound 1.016] | 1 (1=0-19%) | 1 (1=0-19%) | 5 (5=80-100%) | 4 (4=60-79%) | 1 (1=0-19%) | 2 (2=20-39%) | – |
| CN1N=CC(=O)C(n2ccc3cc(Cl)ccc32)C1=O (stereo not drawn) [Compound 1.017] | 1 (1=0-19%) | 1 (1=0-19%) | 5 (5=80-100%) | 4 (4=60-79%) | 1 (1=0-19%) | 3 (3=40-59%) | – |
| CC1=NN(C)C(=O)C(n2c(Cl)c(Cl)c3ccc(Cl)cc32)C1=O (stereo not drawn) [Compound 1.020] | 4 (4=60-79%) | 1 (1=0-19%) | 5 (5=80-100%) | 5 (5=80-100%) | 1 (1=0-19%) | 5 (5=80-100%) | – |
| CC1=NN(C)C(=O)C(n2c(Cl)c(Br)c3ccccc32)C1=O (stereo not drawn) [Compound 1.021] | 2 (2=20-39%) | 1 (1=0-19%) | 5 (5=80-100%) | 5 (5=80-100%) | 2 (2=20-39%) | 5 (5=80-100%) | – |
